Source: patent US10258639B2, “Methods for treating insulin resistance and for sensitizing patients to GLP1 agonist therapy” (Research Development Foundation, priority 2014, dated 2019)

Tested on: INS1 cells
Experiment: RNAseq of INS1 cells grown in chronic high glucose compared to controls and stimulated with FSK (Table 2)
Type: cell-based, rat
Conditions: Low glucose
Procedure: INS-1 insulinoma cells were cultured in RPMI (corning cellgro) containing 10% fetal bovine serum (Gemini Bio Products), 100 μg/mL penicillin-streptomycin and 1 mM sodium pyruvate (corning cellgro). MIN6 cells were grown in DMEM (corning cellgro) with 10% FBS, 100 μg/mL penicillin-streptomycin and 70 uM beta-mercaptoethanol. For chronic glucose experiments, cells were maintained under low (2.8 mM) or high (20 mM) glucose for 3 days. Exendin-4 (10 nM), Forskolin (10 μM), KCl (40 mM), DMOG (1 mM) and rapamycin (50 nM) were added to cells as indicated. Cellular cAMP levels were measured using an ELISA kit (Cayman Chemical Company) according to manufacturer's instructions. Total RNAs from cells or primary islets were extracted using Trizol and cDNA was generated using the Transcriptor First Strand cDNA Synthesis kit (Roche Applied Science). cDNAs were quantified on a lightcycler 480 instrument (Roche Applied Science). Gene expression data were presented relative to the expression of housekeeping gene L32 (rat samples) and 18S (mouse and human islets). RNA-Seq libraries were prepared using the mRNA isolation protocol and the NEBNext-Ultra kits from New England Biolabs following the manufacturer's protocols. Libraries were quantitated by Qubit (Invitrogen), and run on a MiSeq instrument with paired-end 75 bp reads using v3 chemistry (Illumina) Data were analyzed by tophat2 and cuffdiff against the mouse mm10 genome build. The GEO accession number for RNAseq studies reported in the paper is GSE60158.

C=C[C@@]1(C)CC(=O)[C@]2(O)[C@@]3(C)[C@@H](O)CCC(C)(C)[C@@H]3[C@H](O)[C@H](OC(C)=O)[C@@]2(C)O1 [FSK, Forskolin]
Agt RNAseq value (FSK): 5.2 | Ahi1 RNAseq value (FSK): 32.6 | Bhlha15 RNAseq value (FSK): 63.9 | Btg3 RNAseq value (FSK): 145.9 | Bysl RNAseq value (FSK): 56.1 | Canx RNAseq value (FSK): 241.6 | Ccni RNAseq value (FSK): 242.1 | Chd1 RNAseq value (FSK): 20.8 | Chrne RNAseq value (FSK): 0.2 | Ctf1 RNAseq value (FSK): 0.2 | Cxcl2 RNAseq value (FSK): 1.0 | Cyth3 RNAseq value (FSK): 30.7 | Dkc1 RNAseq value (FSK): 87.8 | Epha3 RNAseq value (FSK): 0.1 | Epor RNAseq value (FSK): 0.2 | Fam49a RNAseq value (FSK): 0.2 | Ficd RNAseq value (FSK): 89.9 | Fmc1 RNAseq value (FSK): 26.0 | Fn1 RNAseq value (FSK): 852.9 | Gabre RNAseq value (FSK): 0.1 | Gars RNAseq value (FSK): 439.6 | Ggt5 RNAseq value (FSK): 0.3 | Gnl3 RNAseq value (FSK): 31.0 | Gnmt RNAseq value (FSK): 0.4 | Gzmm RNAseq value (FSK): 0.4 | Hmcn1 RNAseq value (FSK): 0.0 | Hmga2 RNAseq value (FSK): 0.5 | Hnrnpa1 RNAseq value (FSK): 34.2 | Hnrpdl RNAseq value (FSK): 160.1 | Hs3st2 RNAseq value (FSK): 0.6 | Hspa4 RNAseq value (FSK): 138.6 | Hspd1 RNAseq value (FSK): 47.6 | Icam2 RNAseq value (FSK): 0.2 | Il13ra1 RNAseq value (FSK): 0.3 | Il28ra RNAseq value (FSK): 10.0 | Kcnb1 RNAseq value (FSK): 48.7 | Kcnj13 RNAseq value (FSK): 1.4 | Kdm1b RNAseq value (FSK): 9.1 | Kif9 RNAseq value (FSK): 0.3 | LOC683722 RNAseq value (FSK): 12.3 | LOC686295 RNAseq value (FSK): 4.9 | LOC689959 RNAseq value (FSK): 17.9 | Lrfn5 RNAseq value (FSK): 0.1 | Map3k4 RNAseq value (FSK): 25.4 | Mef2d RNAseq value (FSK): 146.0 | Megf10 RNAseq value (FSK): 0.1 | Msn RNAseq value (FSK): 1.2 | Myof RNAseq value (FSK): 0.0 | Nckap1l RNAseq value (FSK): 0.2 | Nkx2-2 RNAseq value (FSK): 192.1 | Nolc1 RNAseq value (FSK): 183.8 | Notch4 RNAseq value (FSK): 0.9 | Ormdl3 RNAseq value (FSK): 286.8 | Otop3 RNAseq value (FSK): 0.1 | Pabpc6 RNAseq value (FSK): 0.1 | Pde3b RNAseq value (FSK): 103.8 | Pde4dip RNAseq value (FSK): 61.8 | Pdrg1 RNAseq value (FSK): 43.4 | Plcb2 RNAseq value (FSK): 0.1 | RGD1309079 RNAseq value (FSK): 1.1 | RGD1311084 RNAseq value (FSK): 0.2 | Rab3gap2 RNAseq value (FSK): 53.1 | Rab11fip1 RNAseq value (FSK): 11.0 | Rap2a RNAseq value (FSK): 13.5 | Rho RNAseq value (FSK): 0.2 | Rpl7a RNAseq value (FSK): 0.4 | Rpl17 RNAseq value (FSK): 117.5 | Rrs1 RNAseq value (FSK): 38.4 | Sgce RNAseq value (FSK): 0.2 | Smad1 RNAseq value (FSK): 48.4 | Smad3 RNAseq value (FSK): 5.7 | Snapc1 RNAseq value (FSK): 4.6 | Sncaip RNAseq value (FSK): 7.4 | Spon2 RNAseq value (FSK): 0.7 | Srp54 RNAseq value (FSK): 40.0 | Stard8 RNAseq value (FSK): 0.3 | Syp RNAseq value (FSK): 744.1 | T2 RNAseq value (FSK): 0.2 | Taf1a RNAseq value (FSK): 9.0 | Tex38 RNAseq value (FSK): 0.5 | Tmem114 RNAseq value (FSK): 0.2 | Tomm20 RNAseq value (FSK): 90.1 | Tpp2 RNAseq value (FSK): 12.0 | Twistnb RNAseq value (FSK): 8.1 | Usp9x RNAseq value (FSK): 56.0 | Vps37b RNAseq value (FSK): 52.0 | Zfp830 RNAseq value (FSK): 20.4 | Zfp385d RNAseq value (FSK): 0.2 | Accsl Fold (FSK/control): 2.0 | Acpt Fold (FSK/control): 2.0 | Acsl4 Fold (FSK/control): 2.0 | Agt Fold (FSK/control): 2.0 | Ahi1 Fold (FSK/control): 2.0 | Bhlha15 Fold (FSK/control): 2.0 | Btg3 Fold (FSK/control): 2.0 | Bysl Fold (FSK/control): 2.0 | Canx Fold (FSK/control): 2.0 | Ccni Fold (FSK/control): 2.0 | Chd1 Fold (FSK/control): 2.0 | Chrne Fold (FSK/control): 2.0 | Ctf1 Fold (FSK/control): 2.0 | Cxcl2 Fold (FSK/control): 2.0 | Cyth3 Fold (FSK/control): 2.0 | Dkc1 Fold (FSK/control): 2.0 | Epha3 Fold (FSK/control): 2.0 | Epor Fold (FSK/control): 2.0 | Fam49a Fold (FSK/control): 2.0 | Ficd Fold (FSK/control): 2.0 | Fmc1 Fold (FSK/control): 2.0 | Fn1 Fold (FSK/control): 2.0 | Gabre Fold (FSK/control): 2.0 | Gars Fold (FSK/control): 2.0 | Ggt5 Fold (FSK/control): 2.0 | Gnl3 Fold (FSK/control): 2.0 | Gnmt Fold (FSK/control): 2.0 | Gzmm Fold (FSK/control): 2.0 | Hmcn1 Fold (FSK/control): 2.0 | Hmga2 Fold (FSK/control): 2.0 | Hnrnpa1 Fold (FSK/control): 2.0 | Hnrpdl Fold (FSK/control): 2.0 | Hs3st2 Fold (FSK/control): 2.0 | Hspa4 Fold (FSK/control): 2.0 | Hspd1 Fold (FSK/control): 2.0 | Icam2 Fold (FSK/control): 2.0 | Il13ra1 Fold (FSK/control): 2.0 | Il28ra Fold (FSK/control): 2.0 | Kcnb1 Fold (FSK/control): 2.0 | Kcnj13 Fold (FSK/control): 2.0 | Kdm1b Fold (FSK/control): 2.0 | Kif9 Fold (FSK/control): 2.0 | LOC683722 Fold (FSK/control): 2.0 | LOC686295 Fold (FSK/control): 2.0 | LOC689959 Fold (FSK/control): 2.0 | Lrfn5 Fold (FSK/control): 2.0 | Map3k4 Fold (FSK/control): 2.0 | Mef2d Fold (FSK/control): 2.0 | Megf10 Fold (FSK/control): 2.0 | Msn Fold (FSK/control): 2.0 | Myof Fold (FSK/control): 2.0 | Nckap1l Fold (FSK/control): 2.0 | Nkx2-2 Fold (FSK/control): 2.0 | Nolc1 Fold (FSK/control): 2.0 | Notch4 Fold (FSK/control): 2.0 | Ormdl3 Fold (FSK/control): 2.0 | Otop3 Fold (FSK/control): 2.0 | Pabpc6 Fold (FSK/control): 2.0 | Pde3b Fold (FSK/control): 2.0 | Pde4dip Fold (FSK/control): 2.0 | Pdrg1 Fold (FSK/control): 2.0 | Plcb2 Fold (FSK/control): 2.0 | RGD1309079 Fold (FSK/control): 2.0 | RGD1311084 Fold (FSK/control): 2.0 | Rab3gap2 Fold (FSK/control): 2.0 | Rab11fip1 Fold (FSK/control): 2.0 | Rap2a Fold (FSK/control): 2.0 | Rho Fold (FSK/control): 2.0 | Rpl7a Fold (FSK/control): 2.0 | Rpl17 Fold (FSK/control): 2.0 | Rrs1 Fold (FSK/control): 2.0 | Sgce Fold (FSK/control): 2.0 | Smad1 Fold (FSK/control): 2.0 | Smad3 Fold (FSK/control): 2.0 | Snapc1 Fold (FSK/control): 2.0 | Sncaip Fold (FSK/control): 2.0 | Spon2 Fold (FSK/control): 2.0 | Srp54 Fold (FSK/control): 2.0 | Stard8 Fold (FSK/control): 2.0 | Syp Fold (FSK/control): 2.0 | T2 Fold (FSK/control): 2.0 | Taf1a Fold (FSK/control): 2.0 | Tex38 Fold (FSK/control): 2.0 | Tmem114 Fold (FSK/control): 2.0 | Tomm20 Fold (FSK/control): 2.0 | Tpp2 Fold (FSK/control): 2.0 | Twistnb Fold (FSK/control): 2.0 | Usp9x Fold (FSK/control): 2.0 | Vps37b Fold (FSK/control): 2.0 | Zfp830 Fold (FSK/control): 2.0 | Zfp385d Fold (FSK/control): 2.0
